This passage reports T/C results from PubChem BioAssay AID200 (DTP/NCI, 2004).

The assay relates to B6C3F1 mice, B16 melanoma ip, median survival T/C. The assay can be described thus: NCI In Vivo Anticancer Drug Screen. Data for tumor model B16 Melanoma (intraperitoneal) in B6C3F1 mice. The following applies: endpoint: median survival time, schedule: Q01DX009 (ip), higher = longer survival. A digest of the protocol: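 Antitumor effect was judged in mice with transplanted tumors by dividing the treated group's survival measure by that of vehicle controls.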

Setting [1] is: dose: 0.31 mg/kg/injection, vehicle: saline.
The mark [2] stands for this setting: dose: 1.25 mg/kg/injection, vehicle: saline.
Setting [3] is: dose: 2.5 mg/kg/injection, vehicle: saline.
The mark [4] stands for this setting: dose: 5.0 mg/kg/injection, vehicle: saline.
Where [5] appears, read: dose: 10.0 mg/kg/injection, vehicle: saline.
Where [6] appears, read: dose: 0.78 mg/kg/injection, vehicle: saline with Tween-80.
[7] abbreviates: dose: 1.56 mg/kg/injection, vehicle: saline with Tween-80.
The mark [8] stands for this setting: dose: 3.12 mg/kg/injection, vehicle: saline with Tween-80.
Where [9] appears, read: dose: 6.25 mg/kg/injection, vehicle: saline with Tween-80.
Setting [10] is: dose: 12.5 mg/kg/injection, vehicle: saline with Tween-80.
Where [11] appears, read: dose: 25.0 mg/kg/injection, vehicle: saline with Tween-80.
Setting [12] is: dose: 50.0 mg/kg/injection, vehicle: saline with Tween-80.
[13] abbreviates: dose: 100.0 mg/kg/injection, vehicle: saline with Tween-80.
Where [14] appears, read: dose: 200.0 mg/kg/injection, vehicle: saline with Tween-80.
Where [15] appears, read: dose: 100.0 mg/kg/injection, vehicle: Klucel (hydroxypropylcellulose) (HPC).

Each structure is given as a SMILES string. “And” between values parts separate entries of the source, which are not always exact repeats. Equal values may be shown once. Inconclusive results and toxic doses are left out. Where a SMILES comes first, the peptide text is derived from it. [ ]: non-standard residue; d: D form. The star is where a group is joined. Cbz = O=C(OCc1ccccc1)*; Nva = CCC[CH](N)C(=O)O

Regarding `CC(C)CC(NC(=O)CF)C(=O)O` (stereo not given), the T/C by setting is: under setting [1], 95 % of control; (dose: 0.63 mg/kg/injection, vehicle: saline) 93 % of control; under setting [2], 90 % of control; under setting [3], 89 % of control; under setting [4], 96 % of control; under setting [5], 100 % of control.

`CC(=O)Nc1ccc(Nc2ccc(C(=C3C=CC(=[N+](C)CCC#N)C=C3)c3ccc(N(C)CCC#N)cc3)cc2)cc1`: the T/C under setting [6] is 105 % of control; the T/C under setting [7] was 108 % of control; the T/C under setting [8] was 105 % of control; the T/C under setting [9] was 107 % of control; the T/C under setting [10] is 120 % of control; the T/C under setting [11] was 106 % of control.

Consider `COc1cc([C@@H]2c3cc4c(cc3[C@@H](OC3OC5CO[C@@H](c6cccs6)OC5C(O)C3O)[C@H]3COC(=O)[C@H]23)OCO4)cc(OC)c1O` (stereo not given in full), for which the T/C is, setting by setting: (dose: 0.25 mg/kg/injection, vehicle: saline) 110 % of control; (dose: 0.5 mg/kg/injection, vehicle: saline) 123 % of control; (dose: 1.0 mg/kg/injection, vehicle: saline) 122 % of control; (dose: 4.0 mg/kg/injection, vehicle: saline) 162 % of control.

On to `CNC(=O)Oc1ccc(S(=O)(=O)c2ccc(OC(=O)NC)cc2)cc1`, for which the T/C is 109 % of control under setting [9]; 95 % of control under setting [10]; 88 % of control and 98 % of control under setting [11]; 90 % of control and 96 % of control under setting [12]; 86 % of control under setting [13].

For the compound `CC1(C)COCN1COCCOCN1COCC1(C)C`, the T/C runs as follows: (dose: 6.25 mg/kg/injection, vehicle: saline) 94 % of control; (dose: 12.5 mg/kg/injection, vehicle: saline) 96 % of control; (dose: 25.0 mg/kg/injection, vehicle: saline) 101 % of control; (dose: 50.0 mg/kg/injection, vehicle: saline) 115 % of control; (dose: 100.0 mg/kg/injection, vehicle: saline) 113 % of control.

As to `C[n+]1c(-c2cccc(OCCCCCCCOc3cccc(-c4c5cc(N)ccc5c5ccc(N)cc5[n+]4C)c3)c2)c2cc(N)ccc2c2ccc(N)cc21`, the T/C (dose: 0.02 mg/kg/injection, vehicle: water) is 98 % of control and the T/C (dose: 0.04 mg/kg/injection, vehicle: water) was 109 % of control.

As to `O=C(N/N=C/c1ccccc1O)c1cccc([N+](=O)[O-])c1`, the T/C under setting [13] was 103 % of control; the T/C under setting [14] was 87 % of control; the T/C (dose: 400.0 mg/kg/injection, vehicle: saline with Tween-80) was 96 % of control.

As to `Cc1cc2c(c3oc(C4(C)OC4C4OC4C)cc(=O)c13)C(=O)c1c(O)c(C3CC(C)(N(C)C)C(O)C(C)O3)cc(C3CC(N(C)C)C(O)C(C)O3)c1C2=O` (stereo not given), the T/C is, setting by setting: (dose: 2.0 micrograms/kg/injection, vehicle: Klucel (hydroxypropylcellulose) (HPC)) 123 % of control; (dose: 4.0 micrograms/kg/injection, vehicle: Klucel (hydroxypropylcellulose) (HPC)) 118 % of control.

Take `CCCC(NC(=O)OCc1ccccc1)C(=O)NC(C(=O)O)C(C)CC` (stereo not given) (Cbz-[Nva]-Ile-OH; configuration not given here): the T/C under setting [15] was 101 % of control and the T/C (dose: 200.0 mg/kg/injection, vehicle: Klucel (hydroxypropylcellulose) (HPC)) was 109 % of control.

Consider `Cn1c(=O)c(-c2ccccc2)[n+]([O-])c2ccccc21`, for which the T/C under setting [11] is 98 % of control, the T/C under setting [12] was 122 % of control, the T/C under setting [13] is 101 % of control and the T/C under setting [14] was 94 % of control.

For the compound `CCOC(=O)Nc1cc2c(c(N)n1)N=C(c1ccc(Cl)cc1Cl)CN2`, the T/C reads like this: (dose: 1.5 mg/kg/injection, vehicle: saline with Tween-80) 113 % of control and 119 % of control; (dose: 3.0 mg/kg/injection, vehicle: saline with Tween-80) 115 % of control; (dose: 6.0 mg/kg/injection, vehicle: saline with Tween-80) 115 % of control; under setting [10], 155 % of control.

With `NC(=O)Oc1cccc(OC(N)=O)c1`, the T/C (dose: 12.5 mg/kg/injection, vehicle: distilled water + Tween-80) was 108 % of control; the T/C (dose: 25.0 mg/kg/injection, vehicle: distilled water + Tween-80) is 107 % of control; the T/C (dose: 50.0 mg/kg/injection, vehicle: distilled water + Tween-80) was 99 % of control; the T/C (dose: 100.0 mg/kg/injection, vehicle: distilled water + Tween-80) was 96 % of control; the T/C (dose: 200.0 mg/kg/injection, vehicle: distilled water + Tween-80) was 113 % of control; the T/C (dose: 400.0 mg/kg/injection, vehicle: distilled water + Tween-80) was 105 % of control.

`CCC12C[N+]3([O-])CCc4c([nH]c5ccccc45)C(C(=O)OC)(c4cc5c(cc4OC)N(C)C4C(O)(C(=O)OC)C(OC(C)=O)C6(CC)C=CCN7CCC54C76)CC(C3)C1O2` (stereo not given): the T/C (dose: 0.62 mg/kg/injection, vehicle: water) is 112 % of control; the T/C (dose: 1.25 mg/kg/injection, vehicle: water) is 104 % of control and 107 % of control; the T/C under setting [3] was 185 % of control; the T/C under setting [4] is 246 % of control; the T/C (dose: 5.0 mg/kg/injection, vehicle: water) is 108 % of control and 261 % of control; the T/C under setting [5] was 373 % of control. Besides, the T/C (dose: 10.0 mg/kg/injection, vehicle: water) was 121 % of control and 309 % of control.

On to `O=C1C2CC=CCC2C(=O)N1SC(Cl)(Cl)Cl` (stereo not given), for which the T/C runs as follows: under setting [6], 90 % of control and 97 % of control; under setting [7], 97 % of control; under setting [8], 89 % of control; under setting [9], 93 % of control; under setting [10], 88 % of control; under setting [11], 89 % of control.

For the compound `C1OC1C1CO1` (stereo not given), the T/C by setting is: under setting [2], 92 % of control and 104 % of control; under setting [3], 91 % of control and 101 % of control (2×); under setting [4], 113 % of control and 103 % of control and 105 % of control; under setting [5], 117 % of control and 122 % of control; (dose: 20.0 mg/kg/injection, vehicle: saline) 118 % of control and 121 % of control; (dose: 40.0 mg/kg/injection, vehicle: saline) 161 % of control.

Turning to `O=C1c2ccccc2CCC1Cl` (stereo not given), the T/C (dose: 1.5 mg/kg/injection, vehicle: DMSO) was 87 % of control; the T/C (dose: 3.0 mg/kg/injection, vehicle: DMSO) was 86 % of control and 87 % of control and 88 % of control; the T/C (dose: 12.0 mg/kg/injection, vehicle: DMSO) is 89 % of control; the T/C (dose: 1.2 micrograms/kg/injection, vehicle: DMSO) was 91 % of control; the T/C (dose: 2.5 micrograms/kg/injection, vehicle: DMSO) is 86 % of control; the T/C (dose: 5.0 micrograms/kg/injection, vehicle: DMSO) is 87 % of control. Besides, where the note is “dose: 10.0 micrograms/kg/injection, vehicle: DMSO”, the T/C is 88 % of control.

As for `CCN(CC)c1ccc2[nH]c3c(C(N)=O)cc(=O)c(=O)c=3oc2c1`, the T/C under setting [10] is 96 % of control and the T/C under setting [11] is 112 % of control.

Turning to `CC(C)(C)N(C(=O)OCC1c2ccccc2-c2ccccc21)C(CO)C(=O)O` (stereo not given), under setting [15], the T/C was 96 % of control.

As to `CCN(CC)CCNc1ccc(C)c2sc3ccc(O)cc3c(=O)c12`, the T/C was 150 % of control under setting [12] and 191 % of control under setting [13].

Consider `CC1OC2CC(O)C1(O)C1=C2C(O)=C(C(N)=O)C(=N)C1=O` (stereo not given), for which the T/C under setting [1] was 106 % of control; the T/C (dose: 0.62 mg/kg/injection, vehicle: saline) was 98 % of control; the T/C under setting [2] is 104 % of control; the T/C under setting [3] is 98 % of control; the T/C under setting [4] was 102 % of control.
